The subject of series [1] is M. tuberculosis ATCC 35828 (H37Rv PZA-R). The series can be described thus: MIC by agar proportion method, standard strain. To be noted: Mycobacterium tuberculosis; […]; agar proportion method; read-out: MIC. In kind it is cell-based.
Series [2] has as its system M. microti ATCC 11152. The series can be described thus: MIC by agar proportion method, standard strain. Format: cell-based. To be noted: ATCC11152; M. microti ATCC 11152; agar proportion method; read-out: MIC.
Series [3] concerns M. tuberculosis Kurono. Format: in vivo. To be noted: oral 5 days per week, 4 weeks; OPC-167832 0.625, DMD 0.625, BDQ 5, LVX 300, LZD 100 mg/kg.
Series [4] has as its system M. tuberculosis ATCC 35837 (H37Rv EMB-R). Briefly: MIC by agar proportion method, standard strain. Format: cell-based. The following applies: Mycobacterium tuberculosis; […]; agar proportion method; read-out: MIC.
Series [5] deals with clinically isolated M. tuberculosis strains. In kind it is cell-based. To be noted: summary in abstract.
Series [6] relates to standard strains of nonmycobacterial aerobic and anaerobic bacteria. The series can be described thus: Activity against nonmycobacterial bacteria. Format: cell-based. To be noted: data not shown.
The conditions of series [7]: lung.
Series [8] deals with intracellular M. tuberculosis H37Rv. The series can be described thus: microbe, parasite or virus in culture. Format: cell-based.
The subject of series [9] is M. africanum ATCC 25420. The series can be described thus: MIC by agar proportion method, standard strain. To be noted: ATCC25420; M. africanum ATCC 25420; agar proportion method; read-out: MIC. In kind it is cell-based.
Series [10] concerns M. tuberculosis ATCC 35820 (H37Rv SM-R). The series can be described thus: MIC by agar proportion method, standard strain. To be noted: Mycobacterium tuberculosis; […]; agar proportion method; read-out: MIC. In kind it is cell-based.
The test system of series [11] is M. pinnipedii ATCC BAA-688. The series can be described thus: MIC by agar proportion method, standard strain. In kind it is cell-based. To be noted: ATCCBAA688; M. pinnipedii ATCC BAA-688; agar proportion method; read-out: MIC.
Series [12] relates to M. tuberculosis Kurono. Briefly: Monotherapy in a mouse model of chronic TB. Format: in vivo.
Series [13] has as its system M. tuberculosis ATCC 35838 (H37Rv RIF-R). The series can be described thus: MIC by agar proportion method, standard strain. Format: cell-based. The following applies: Mycobacterium tuberculosis; […]; agar proportion method; read-out: MIC.
The subject of series [14] is M. bovis ATCC BAA-935. The series can be described thus: microbe, parasite or virus in culture. In kind it is cell-based. To be noted: Mycobacterium tuberculosis variant bovis, ATCCBAA935.
The test system of series [15] is M. tuberculosis ATCC 35822 (H37Rv INH-R). Briefly: MIC by agar proportion method, standard strain. The following applies: Mycobacterium tuberculosis; […]; agar proportion method; read-out: MIC. In kind it is cell-based.
The test system of series [16] is M. tuberculosis ATCC 27294 (H37Rv). Briefly: MIC by agar proportion method, standard strain. In kind it is cell-based. The following applies: Mycobacterium tuberculosis; ATCC 27294 (H37Rv); agar proportion method; […]; read-out: MIC.
In series [17] the test system is growing M. tuberculosis H37Rv. Format: cell-based.
In series [18] the test system is 27 strains of M. tuberculosis. Briefly: Checkerboard agar dilution assay. In kind it is cell-based. To be noted: combined with DMD, MXF, LVX, BDQ, or LZD. The procedure:
FIG 4 In vitro combination effects of OPC-167832 and other anti-TB agents (checkerboard assay). The in vitro combination effects of OPC-167832 and existing anti-TB agents against 27 strains of M. tuberculosis were examined by the checkerboard agar dilution method. CI, confidence interval.
The checkerboard procedure was performed using the MICs of tested agents against the bacterial strains established by an agar dilution method reported previously ([36]). The level of synergy was determined by calculating the FIC index based on the following formulas: ΣFIC = FIC of compound A + FIC of compound B; FIC of compound A = MIC of compound A in combination ÷ MIC of compound A alone; FIC of compound B = MIC of compound B in combination ÷ MIC of compound B alone. The average ΣFIC value was interpreted using the European Committee on Antimicrobial Susceptibility Testing criteria ([37]) with the following values: ≤0.5, synergy; >0.5 to 1, additive effect; >1 to 2, indifference; >2, antagonism). The averages of the ΣFIC values and the 95% confidence intervals for the tested bacterial strains were calculated.
On the technique in general: In agar dilution, organisms are placed on agar that contains the substance at set levels.

Series [19] in a line: in vivo. The following applies: ICR, mouse.
In series [20] the test system is M. tuberculosis ATCC 35812 (Kurono). The series can be described thus: MIC by agar proportion method, standard strain. Format: cell-based. To be noted: Mycobacterium tuberculosis, ATCC35812; ATCC 35812 (Kurono); agar proportion method; read-out: MIC.
Series [21] relates to intracellular M. tuberculosis Kurono. Briefly: microbe, parasite or virus in culture. Format: cell-based.
Series [22] concerns M. caprae ATCC BAA-824. Briefly: MIC by agar proportion method, standard strain. The following applies: ATCCBAA824; M. caprae ATCC BAA-824; agar proportion method; read-out: MIC. In kind it is cell-based.
For series [23] the following is noted: lungs of mice; cited from earlier work.
The test system of series [24] is M. tuberculosis. The following applies: cited from earlier work.

Values after ≈ are worked out from the molar mass of the structure shown. Values joined by “and” are separate entries in the source; they are usually repeats but may differ in a detail not shown here. Equal entries are not always repeated. Where two headings read alike, the source gives them in different places.

Consider 3 compounds from PMC7269503 (Antimicrobial Agents and Chemotherapy, 2020).

With `O=C1CCc2c(OC[C@]3(O)CCN(c4c(F)cc(Cl)cc4F)C[C@H]3O)ccc(F)c2N1` [OPC-167832], the MIC in series [1] is 1 ng/mL (≈ 2.19 nM); in [2], 1 ng/mL (≈ 2.19 nM); in [4], 2 ng/mL (≈ 4.38 nM); in series [9], 2 ng/mL (≈ 4.38 nM); in series [10], 1 ng/mL (≈ 2.19 nM); in [11] it was 0.5 ng/mL (≈ 1.09 nM). In addition, the MIC in [13] came out at 0.5 ng/mL (≈ 1.09 nM); in [14] it was 2 ng/mL (≈ 4.38 nM); in series [15], 0.24 ng/mL (≈ 0.525 nM); in series [16], 0.5 ng/mL (≈ 1.09 nM); in series [20], 0.5 ng/mL (≈ 1.09 nM); in series [22], 1 ng/mL (≈ 2.19 nM). Besides, the “lung CFU compared to the vehicle group, single agent” value in series [3] is listed as “significant decrease of lung CFU”. Moreover, the “MICs for Mycobacterium tuberculosis (overall range)” value in series [5] is 0.00024 to 0.002 µg/mL. Besides, the “activity against nonmycobacterial aerobic and anaerobic bacteria” value in series [6] was “minimal or no activity”. The AUCt in series [7] (0.625 mg/kg oral, t: 8h) turned out to be 505 ng·h/g; in [7] (1.25 mg/kg oral, t: 8h) it was 909 ng·h/g; in [7] (2.5 mg/kg oral, t: 8h), 2133 ng·h/g; in series [7] (5 mg/kg oral, t: 12h), 4742 ng·h/g; in [7] (10 mg/kg oral, t: 12h), 7410 ng·h/g. Further, the “concentration at which intracellular bactericidal activity was saturated” value in [8] was at least 0.004 µg/mL. Also, the “bactericidal activity against intracellular bacilli” value in series [8] (H37Rv in THP-1-derived macrophage-like cells, 3 days) is on record as “killed the intracellular bacilli”; in series [21] (Kurono in THP-1-derived macrophage-like cells, 3 days), “killed the intracellular bacilli”. Moreover, the IC90 in [8] (Mycobacterium tuberculosis, H37RV, THP-1, read-out: 90% inhibitory concentration (IC90)) worked out at 4.8 ng/mL (≈ 10.5 nM); in series [21] (Mycobacterium tuberculosis, THP-1, read-out: 90% inhibitory concentration (IC90)), 2.7 ng/mL (≈ 5.91 nM). In series [12] (0.625, 1.25, 2.5, 5 and 10 mg/kg oral daily, 4 weeks, ICR female mice), the “lung CFU compared to the vehicle group” value was “significantly reduced lung CFU”. Besides, in series [12] (mouse model of chronic TB, oral), the minimum effective dose is reported as 0.625 mg/kg. The “concentration at which killing activity was achieved” value in series [17] came out at 0.0005 µg/mL. Further, in series [18], the “interactive effect (mean FIC index)” value is reported as “indifferent effect”. The Kp in series [19] is 1.67 to 1.96; in [19] (female, po) it was around 2. The Tmax in series [19] (female, po) is 0.5 to 1 h; in series [19] (female, po, 0.625 mg/kg) it was 1 h; in series [19] (female, po, 1.25 mg/kg), 1 h; in series [19] (female, po, 2.5 mg/kg) it was 0.5 h; in series [19] (female, po, 5 mg/kg) it was 1 h; in series [19] (female, po, 10 mg/kg), 1 h. For the same compound, the AUC(0-t) in series [19] (female, po, 0.625 mg/kg) amounted to 283 ng·h/mL; in [19] (female, po, 1.25 mg/kg) it was 543 ng·h/mL; in [19] (female, po, 2.5 mg/kg) it was 1140 ng·h/mL; in series [19] (female, po, 5 mg/kg), 2650 ng·h/mL; in series [19] (female, po, 10 mg/kg), 3780 ng·h/mL. The Cmax in series [19] (female, po, 0.625 mg/kg) was 162 ng/g; in [19] (female, po, 1.25 mg/kg) it was 303 ng/g and 200 ng/mL; in [19] (female, po, 2.5 mg/kg), 314 ng/mL and 651 ng/g; in [19] (female, po, 5 mg/kg), 758 ng/mL and 1360 ng/g; in series [19] (female, po, 10 mg/kg), 1090 ng/mL and 2220 ng/g. Also, the half-life in series [19] (female, po, 0.625 mg/kg, t1/2, lung, 0.625 mg/kg oral, calculated 2 - 8h) was 84 min; in series [19] (female, po, 0.625 mg/kg, t1/2, plasma, 0.625 mg/kg oral, calculated 2 - 8h) it was 96 min; in series [19] (female, po, 1.25 mg/kg, t1/2, lung, 1.25 mg/kg oral, calculated 4 - 8h), 120 min; in series [19] (female, po, 1.25 mg/kg, t1/2, plasma, 1.25 mg/kg oral, calculated 2 - 12h), 90 min; in series [19] (female, po, 2.5 mg/kg, t1/2, lung, 2.5 mg/kg oral, calculated 2 - 8h) it was 78 min; in series [19] (female, po, 2.5 mg/kg, t1/2, plasma, 2.5 mg/kg oral, calculated 6 - 12h) it was 78 min. Moreover, the half-life in series [19] (female, po, 5 mg/kg, t1/2, lung, 5 mg/kg oral, calculated 2 - 12h) is 126 min; in series [19] (female, po, 5 mg/kg, t1/2, plasma, 5 mg/kg oral, calculated 2 - 12h), 126 min; in [19] (female, po, 10 mg/kg, t1/2, lung, 10 mg/kg oral, calculated 6 - 12h), 126 min; in series [19] (female, po, 10 mg/kg, t1/2, plasma, 10 mg/kg oral, calculated 2 - 12h) it was 96 min; in series [19] (female, po, half-life (t1/2), plasma, oral doses 0.625 to 10 mg/kg), 78 to 126 min.
Take `O=c1nc(N2CCN(CC3CCCCC3)CC2)sc2c([N+](=O)[O-])cc(C(F)(F)F)cc12` [PBTZ169]: the “Kp (tissue to plasma partition coefficient), lungs” value in [23] is given as 0.415.
`CCOC(=O)NC(=O)c1ccsc1NC(=O)c1nc2ccccc2s1` [TCA1]: in series [24], the MIC is 0.19 µg/mL (≈ 506 nM).

In general, Tmax refers to the time from dosing to the highest level. Broadly, the AUC(0-t) is exposure summed from dosing to a finite time, without extrapolation to infinity. In general, Cmax refers to the maximum level reached in the sampled fluid or tissue. As usually defined, the half-life is how long it takes for the measured level to halve.
